Our source for the Ki values is patent US20110077237A1, “KINASE INHIBITORS” (VERTEX PHARMACEUTICALS INCORPORATED, priority 2007, published 2011).

Structures are written as SMILES. Where two headings read alike, the source gives them in different places. Some results are limits rather than exact numbers.

The target in the experiment is PKC delta kinase (Homo sapiens, UniProt Q05655). Briefly: PKC Delta coupled-enzyme kinase assay. The class given is biochemical. How it is done:
An assay buffer solution was prepared which consisted of 100 mM HEPES (pH 7.5), 10 mM MgCl2, 25 mM NaCl, 0.1 mM EDTA and 0.01% Brij. […] To 16 μL of this enzyme buffer, in a 384 well plate, was added 1 μL of VRT stock solution in DMSO. The mixture was allowed to equilibrate for 10 mins at 30° C. […] Ki values were calculated from initial rate data by non-linear regression using the Prism software package (Prism 4.0a, Graphpad Software, San Diego, Calif.).

Setting [1] is: 46 nM PKC delta, 150 μM ATP, 30° C., read-out: Ki PKC delta.

PKC delta kinase, sequence (Q05655 whole entry): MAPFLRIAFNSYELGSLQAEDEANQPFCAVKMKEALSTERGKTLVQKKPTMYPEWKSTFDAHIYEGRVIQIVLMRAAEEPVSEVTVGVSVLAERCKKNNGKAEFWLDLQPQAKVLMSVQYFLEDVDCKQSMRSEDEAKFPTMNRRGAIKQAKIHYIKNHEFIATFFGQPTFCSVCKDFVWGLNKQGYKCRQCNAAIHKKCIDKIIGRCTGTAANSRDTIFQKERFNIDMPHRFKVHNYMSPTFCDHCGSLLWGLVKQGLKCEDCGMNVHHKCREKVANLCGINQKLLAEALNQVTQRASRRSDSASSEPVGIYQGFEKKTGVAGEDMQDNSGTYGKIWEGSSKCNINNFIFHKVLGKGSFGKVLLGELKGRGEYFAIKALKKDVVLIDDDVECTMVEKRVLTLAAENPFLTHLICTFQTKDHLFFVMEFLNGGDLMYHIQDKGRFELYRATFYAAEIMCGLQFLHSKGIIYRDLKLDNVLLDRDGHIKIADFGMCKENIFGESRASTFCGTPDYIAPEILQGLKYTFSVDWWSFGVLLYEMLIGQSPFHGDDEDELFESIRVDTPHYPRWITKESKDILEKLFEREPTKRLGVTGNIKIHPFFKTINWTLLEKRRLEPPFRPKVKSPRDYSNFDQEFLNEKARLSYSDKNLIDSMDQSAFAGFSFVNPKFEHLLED

Regarding `Cc1cnc(N)c(C(=O)c2cccc(N3CCCNCC3)n2)c1` [compound 155, (6-(1,4-diazepan-1-yl)pyridin-2-yl)(2-amino-5-methylpyridin-3-yl)methanone bis(2,2,2-trifluoroacetate)], the Ki under setting [1] is 0.5 to 2.8 µM.

Turning to `C[C@H]1CN(c2cccc(C(=O)c3cccnc3N)n2)[C@@H](C)CN1` [compound 218], the Ki under setting [1] fell in the range of 0.05 to 0.5 µM.

For `N#Cc1cnc(N)c(C(=O)c2cccc(N3CCCNCC3)n2)c1` [compound 302], the Ki under setting [1] fell in the range of 0.5 to 2.8 µM.

`Cc1cc(C)c(CC2CN(c3cccc(C(=O)c4cccnc4N)n3)CCN2)c(C)c1` (centres unmarked) [compound 244]: the Ki under setting [1] was more than 2.8 µM.

For `Nc1ncccc1C(=O)c1cccc(N2CCNC(c3cccc(C(F)(F)F)c3)C2)n1` (centres unmarked) [compound 314], the Ki under setting [1] is 0.05 to 0.5 µM.

On to `Nc1ncc(-c2ccc(CO)cc2)cc1C(=O)c1cccc(N2CCNC(c3ccccc3)C2)n1` (centres unmarked) [compound 282], for which, under setting [1], the Ki is 0.05 to 0.5 µM.

As to `Nc1ncccc1C(=O)c1cccc(-c2c[nH]c3ccccc23)n1` [compound 294], the Ki under setting [1] is more than 2.8 µM.

For `N#Cc1ccc(-c2cnc(N)c(C(=O)c3cccc(N4CCNC(c5ccccc5)C4)n3)c2)cc1` (centres unmarked) [compound 271], the Ki under setting [1] fell in the range of 0.05 to 0.5 µM.

As to `COc1cccc(C2CN(c3cccc(C(=O)c4cccnc4N)n3)CCN2)c1` (centres unmarked) [compound 309], the Ki under setting [1] was in the range of 0.5 to 2.8 µM.

As for `COc1ccccc1-c1cnc(N)c(C(=O)c2cccc(N3CCNC(c4ccccc4)C3)n2)c1` (centres unmarked) [compound 284], the Ki under setting [1] was in the range of 0.05 to 0.5 µM.

Turning to `CC(C)N1CCN(c2cccc(C(=O)c3cc(Br)cnc3N)n2)CC1` [compound 100], under setting [1], the Ki lay in the range of 0.05 to 0.5 µM.

Regarding `CCc1cnc(N)c(C(=O)c2cccc(N3CCCN(C)CC3)n2)c1` [compound 153], the Ki under setting [1] is 0.5 to 2.8 µM.

For the compound `Nc1ncc(/C=C/c2ccccc2)cc1C(=O)c1cccc(N2CCNC(c3ccccc3)C2)n1` (centres unmarked) [compound 290], the Ki under setting [1] was 0.05 to 0.5 µM.

With `Nc1ncc(Br)cc1C(=O)c1cccc(N2CCNCC2)n1` [compound 195], the Ki under setting [1] lay within 0.05 to 0.5 µM.

As for `Nc1ncccc1C(=O)c1cccc(N2CCNC(c3ccccc3Cl)C2)n1` (centres unmarked) [compound 258], under setting [1], the Ki lay in the range of 0.05 to 0.5 µM.

In the case of `Nc1ncc(-c2ccccc2)cc1C(=O)c1cccc(N2CCNC(c3ccccc3)C2)n1` (centres unmarked) [compound 262], under setting [1], the Ki lay within 0.5 to 2.8 µM.

On to `Cc1cccc(-c2cnc(N)c(C(=O)c3cccc(N4CCCNCC4)n3)c2)c1` [compound 182], for which the Ki under setting [1] is 0.05 to 0.5 µM.

For `Nc1ncc(Br)cc1C(=O)c1nc(N2CCNC(c3ccccc3)C2)ccc1Cl` (centres unmarked) [compound 331], the Ki under setting [1] fell in the range of 0.05 to 0.5 µM.

In the case of `Nc1ncc(-c2cccc(CO)c2)cc1C(=O)c1cccc(N2CCNC(c3ccccc3)C2)n1` (centres unmarked) [compound 283], the Ki under setting [1] lay in the range of 0.05 to 0.5 µM.

For the compound `Nc1ncc(Br)cc1C(=O)c1cccc(N2CCCN(CCO)CC2)n1` [compound 98], under setting [1], the Ki lay in the range of 0.05 to 0.5 µM.

For `Nc1ncc(-c2c[nH]c3ccccc23)cc1C(=O)c1cccc(N2CCNC(c3ccccc3)C2)n1` (centres unmarked) [compound 268], the Ki under setting [1] was 0.05 to 0.5 µM.

With `Cc1ccccc1-c1cnc(N)c(C(=O)c2cccc(N3CCCNCC3)n2)c1` [compound 57], the Ki under setting [1] is 0.5 to 2.8 µM.

Regarding `Nc1ncccc1C(=O)c1cccc(N2CCNC(c3ccc(Cl)c(Cl)c3)C2)n1` (centres unmarked) [compound 313], the Ki under setting [1] is 0.05 to 0.5 µM.

For `CN1CCCN(c2cncc(C(=O)c3cc(Br)cnc3N)n2)CC1` [compound 156], under setting [1], the Ki was in the range of 0.05 to 0.5 µM.

As for `Nc1ncc(-c2cccc(O)c2)cc1C(=O)c1cccc(N2CCCNCC2)n1` [compound 172], under setting [1], the Ki was 0.05 to 0.5 µM.

Take `CC(C)C[C@H]1CN(c2cccc(C(=O)c3cc(Br)cnc3N)n2)CCN1` [compound 232]: under setting [1], the Ki was 0.05 to 0.5 µM.

Take `Nc1ncc(Cl)cc1C(=O)c1cccc(N2CCCNCC2)n1` [compound 245]: the Ki under setting [1] lay in the range of 0.05 to 0.5 µM.

For the compound `Nc1ncc(-c2csc3ccccc23)cc1C(=O)c1cccc(N2CCNC(c3ccccc3)C2)n1` (centres unmarked) [compound 266], the Ki under setting [1] was 0.5 to 2.8 µM.

In the case of `CC1CN(c2cccc(C(=O)c3cccnc3N)n2)C(C)CN1` (centres unmarked) [compound 222], under setting [1], the Ki was 0.05 to 0.5 µM.

Regarding `C=Cc1cnc(N)c(C(=O)c2cccc(N3CCN[C@@H](CC(C)C)C3)n2)c1` [compound 233], under setting [1], the Ki was 0.05 to 0.5 µM.

In the case of `N#Cc1cccc(-c2cnc(N)c(C(=O)c3cccc(N4CCNC(c5ccccc5)C4)n3)c2)c1` (centres unmarked) [compound 270], the Ki under setting [1] was in the range of 0.05 to 0.5 µM.

Consider `CC(C)C[C@H]1CN(c2cccc(C(=O)c3cc(-c4ccccc4)cnc3N)n2)CCN1` [compound 239], for which the Ki under setting [1] was 0.5 to 2.8 µM.

Take `Nc1ncc(-c2ccc[nH]2)cc1C(=O)c1cccc(N2CCCNCC2)n1` [compound 183]: the Ki under setting [1] was 0.05 to 0.5 µM.

Regarding `Nc1ncc(-c2cc[nH]c2)cc1C(=O)c1cccc(N2CCCNCC2)n1` [compound 199], the Ki under setting [1] lay within 0.05 to 0.5 µM.

Turning to `Nc1cccc(-c2cnc(N)c(C(=O)c3cccc(N4CCCNCC4)n3)c2)c1` [compound 169], the Ki under setting [1] lay in the range of 0.05 to 0.5 µM.

On to `N#CC1(c2cccc(C(=O)c3cccnc3N)n2)CCNCC1` [compound 280], for which the Ki under setting [1] is 0.05 to 0.5 µM.

With `Nc1ncccc1C(=O)c1cccc(N2CCNC(c3ccc(O)cc3)C2)n1` (centres unmarked) [compound 312], under setting [1], the Ki was in the range of 0.05 to 0.5 µM.

On to `Nc1ncccc1C(=O)c1cccc(N2CCCN(C(=O)CC3CC3)CC2)n1` [compound 35], for which the Ki under setting [1] is more than 2.8 µM.

On to `Nc1ncc(Br)cc1C(=O)c1cncc(N2CCCNCC2)n1` [compound 149], for which, under setting [1], the Ki lay in the range of 0.05 to 0.5 µM.

As for `COc1cccc(-c2cnc(N)c(C(=O)c3cccc(N4CCCNCC4)n3)c2)c1` [compound 181], the Ki under setting [1] fell in the range of 0.05 to 0.5 µM.

As to `Nc1ncc(Br)cc1C(=O)c1cccc(N2CCCN(C(=O)c3ccccc3C(F)(F)F)CC2)n1` [compound 150], under setting [1], the Ki lay in the range of 0.05 to 0.5 µM.

With `N#Cc1ccccc1-c1cnc(N)c(C(=O)c2cccc(N3CCNC(c4ccccc4)C3)n2)c1` (centres unmarked) [compound 269], under setting [1], the Ki was in the range of 0.05 to 0.5 µM.

`CC(C)[C@@H]1CN(c2cccc(C(=O)c3cccnc3N)n2)CCN1` [compound 231]: the Ki lay in the range of 0.5 to 2.8 µM.

With `Nc1ncc(-c2ccncc2)cc1C(=O)c1cccc(N2CCNC(c3ccccc3)C2)n1` (centres unmarked) [compound 288], under setting [1], the Ki lay within 0.5 to 2.8 µM.

For the compound `Nc1ncc(/C=C/c2ccccc2)cc1C(=O)c1cccc(N2CCCNCC2)n1` [compound 167], the Ki under setting [1] lay within 0.05 to 0.5 µM.

On to `C[C@H]1CNCCN1c1cccc(C(=O)c2cccnc2N)n1` [compound 228], for which the Ki under setting [1] lay in the range of 0.05 to 0.5 µM.

`CC(C)C[C@H](N)COc1ccc(C(F)(F)F)c(C(=O)c2cccnc2N)n1` [compound 406]: the Ki under setting [1] was in the range of 0.05 to 0.5 µM.

On to `Nc1ncccc1C(=O)c1cccc(N2CCNC(c3cccnc3)C2)n1` (centres unmarked) [compound 249], for which the Ki under setting [1] fell in the range of 0.05 to 0.5 µM.

With `Nc1ncc(-c2ccc(O)cc2)cc1C(=O)c1cccc(N2CCCNCC2)n1` [compound 171], the Ki under setting [1] fell in the range of 0.05 to 0.5 µM.

`C=Cc1cnc(N)c(C(=O)c2cccc(N3CCCN(C)CC3)n2)c1` [compound 152]: the Ki under setting [1] lay in the range of 0.05 to 0.5 µM.

On to `Nc1ncc(-c2cc3ccccc3s2)cc1C(=O)c1cccc(N2CCNC(c3ccccc3)C2)n1` (centres unmarked) [compound 265], for which, under setting [1], the Ki lay in the range of 0.5 to 2.8 µM.

As to `Nc1ncccc1C(=O)c1cccc(N2CCCN(C(=O)Cc3ccccc3)CC2)n1` [compound 33], under setting [1], the Ki was in the range of 0.05 to 0.5 µM.

Consider `Nc1ncc(-c2ccsc2)cc1C(=O)c1cccc(N2CCNC(c3ccccc3)C2)n1` (centres unmarked) [compound 264], for which, under setting [1], the Ki was in the range of 0.5 to 2.8 µM.

With `Nc1ncccc1C(=O)c1nc(N2CCCNCC2)cs1` [compound 102], the Ki under setting [1] fell in the range of 0.05 to 0.5 µM.

On to `Nc1ncccc1C(=O)c1nc(N2CCC(N)CC2)ccc1Cl` [compound 322], for which, under setting [1], the Ki was in the range of 0.05 to 0.5 µM.

For the compound `Nc1ncccc1C(=O)c1cccc(N2CCC(N)CC2)n1` [compound 86], the Ki lay within 0.05 to 0.5 µM.

On to `CC(C)C[C@H]1CN(c2cccc(C(=O)c3cccnc3N)n2)CCN1C(=O)CC(F)(F)F` [compound 219], for which the Ki under setting [1] was more than 2.8 µM.

In the case of `COc1ccc(-c2cnc(N)c(C(=O)c3cccc(N4CCCNCC4)n3)c2)cc1` [compound 186], under setting [1], the Ki fell in the range of 0.05 to 0.5 µM.

For `COc1cccc(C2CN(c3ccc(C(F)(F)F)c(C(=O)c4cccnc4N)n3)CCN2)c1` (centres unmarked) [compound 397], the Ki under setting [1] was 0.05 to 0.5 µM.

Consider `Nc1ncccc1C(=O)c1nc(N2CCNCC2)ccc1C(F)(F)F` [compound 316], for which, under setting [1], the Ki fell in the range of 0.05 to 0.5 µM.

On to `Cc1sc(N2CCNC(c3ccccc3)C2)nc1C(=O)c1cccnc1N` (centres unmarked) [compound 256], for which the Ki under setting [1] lay within 0.5 to 2.8 µM.

Consider `Nc1ncc(-c2cc[nH]c2)cc1C(=O)c1cccc(N2CCNC(c3ccccc3)C2)n1` (centres unmarked) [compound 289], for which the Ki under setting [1] was 0.05 to 0.5 µM.

On to `CC(C)(C)C(=O)N1CCCN(c2cccc(C(=O)c3cccnc3N)n2)CC1` [compound 37], for which, under setting [1], the Ki is 0.5 to 2.8 µM.

`C=Cc1cnc(N)c(C(=O)c2cncc(N3CCCNCC3)n2)c1` [compound 165]: under setting [1], the Ki was in the range of 0.05 to 0.5 µM.

Take `Nc1ncc(Br)cc1C(=O)c1ncc(C(=O)NCc2ccccc2)s1` [compound 62]: the Ki under setting [1] was in the range of 0.05 to 0.5 µM.

As to `Cc1ccc(-c2cnc(N)c(C(=O)c3cccc(N4CCCNCC4)n3)c2)cc1` [compound 59], the Ki under setting [1] lay within 0.05 to 0.5 µM.

With `Nc1ncc(-c2cccnc2)cc1C(=O)c1cccc(N2CCCNCC2)n1` [compound 58], the Ki under setting [1] is 0.05 to 0.5 µM.

Take `Nc1ncccc1C(=O)c1nc(N2CCNC(c3ccccc3)C2)ccc1C(F)(F)F` (centres unmarked) [compound 317]: the Ki under setting [1] was 0.05 to 0.5 µM.

Take `CC(C)[C@@H]1CNCCN1c1cccc(C(=O)c2cccnc2N)n1` [compound 237]: the Ki under setting [1] lay within 0.05 to 0.5 µM.

As for `CN(C)c1cccc(-c2cccc(C(=O)c3cccnc3N)n2)c1` [compound 293], under setting [1], the Ki was more than 2.8 µM.

For the compound `Nc1ncccc1C(=O)c1nc(N2CCNC(c3ccccc3)C2)ccc1Cl` (centres unmarked) [compound 321], the Ki under setting [1] lay in the range of 0.05 to 0.5 µM.

Take `Nc1ncc(-c2ccsc2)cc1C(=O)c1cccc(N2CCCNCC2)n1` [compound 201]: the Ki under setting [1] was 0.05 to 0.5 µM.

As for `CC1(N)CCN(c2cccc(C(=O)c3cccnc3N)n2)CC1` [compound 305], the Ki under setting [1] lay in the range of 0.05 to 0.5 µM.

As to `Nc1ncccc1C(=O)c1nc(N2CCCNCC2)ccc1Cl` [compound 324], under setting [1], the Ki fell in the range of 0.05 to 0.5 µM.
